Laboratory results as given in patent publication US20100316590A1, “COMPOSITIONS AND METHODS RELATED TO POLOXAMER COPOLYMER MEMBRANE SEALANT” (THE BOARD OF REGENTS OF THE UNIVERSITY OF TEXAS SYSTEM, priority 2009, published 2010).

Tested on: SH-SY5Y human neuroblastoma cells

Substance | toxicity of poloxamer on its own to the cells compared to untreated controls | reduction in cell viability of cells treated with P188 alone compared to untreated controls
poloxamer 407 [Poloxamer P407] | non-toxic | –
poloxamer 188 [Poloxamer P188] | – | not statistically significant
